Laboratory results from PMC6159918 (Peptides, 2018).
Like-named read-outs stand apart in the source and are kept apart here.

Assays:
[1] = molecular target: T1, human BRS-3-receptor (Homo sapiens, UniProt P32247); experiment: [3H]-inositol phosphates; type: cell-based; details: for EC50: EC50, release of [3H]IP; for [3H]IP (Exp/control) / [3H]IP (DPM): MK-5046 10 nM
T1 sequence (P32247 1-399): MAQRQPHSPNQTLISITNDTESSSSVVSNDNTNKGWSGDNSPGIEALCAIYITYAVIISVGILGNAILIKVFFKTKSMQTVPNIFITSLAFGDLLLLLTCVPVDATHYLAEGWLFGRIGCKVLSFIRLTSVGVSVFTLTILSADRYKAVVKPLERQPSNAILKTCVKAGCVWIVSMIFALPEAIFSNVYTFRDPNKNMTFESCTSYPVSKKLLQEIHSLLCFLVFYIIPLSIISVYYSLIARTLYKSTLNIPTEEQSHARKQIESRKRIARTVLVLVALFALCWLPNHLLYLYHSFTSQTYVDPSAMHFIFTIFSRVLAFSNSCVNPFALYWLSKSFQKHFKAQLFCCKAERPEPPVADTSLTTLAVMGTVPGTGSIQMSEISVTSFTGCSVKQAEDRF

[2] = molecular target: T1, human BRS-3-receptor; experiment: Cytosolic Ca2+; type: cell-based; details: MK-5046 10 nM
[3] = molecular target: T1, human BRS-3-receptor; experiment: p42/44 MAPK phosphorylation; type: cell-based; details: for EC50: EC50, p42/44 phosphorylation; for P-p42/44 (Exp/control): MK-5046 10 nM, 3 min
[4] = test system: human lung-cancer cells; experiment: cells; type: cell-based; details: for EC50: Homo sapiens; for [3H]-Thymidine Incorporation (Exp/control): 24 h serum-free
[5] = test system: BRS-3/Balb cells; details: 24 h serum-free, Balb-3T3 BRS-3-transfected

Structure (SMILES): O[C@@](Cc1nc(CC2(C(F)(F)F)CC2)c[nH]1)(c1ccc(-n2cccn2)cc1)C(F)(F)F [MK-5046, (2S)-1,1,1-trifluoro-2-[4-(1H-pyrazol-1-yl)phenyl]-3-(4-[[1-(trifluoromethyl)cyclopropyl]methyl]-1H-imidazol-2-yl)propan-2-ol]
- greatest [3H]IP-increase in IP-production ([1]; BRS-3/H1299-cells): 8 fold
- EC50 ([1]; BRS-3/H1299 cells): 0.37 ± 0.04 nM
- EC50 ([1]; NCI-H69 cells): 3.29 ± 0.54 nM
- EC50 ([1]; NCI-H720 cells): 0.14 ± 0.05 nM
- decrease in [3H]IP-release at supramaximal concentrations ([1]; H720 cells, p < 0.05): 28%
- [3H]IP (Exp/control) ([1]; Balb-3T3 BRS-3 transfected): 7.50 ± 0.68 Exp/control
- [3H]IP (DPM) ([1]; Balb-3T3 BRS-3 transfected, control 2487 ± 185): 18657 ± 1698 DPM
- [3H]IP (Exp/control) ([1]; NCI-H69 (SCLC)): 3.38 ± 0.17 Exp/control
- [3H]IP (DPM) ([1]; NCI-H69 (SCLC), control 177 ± 27): 597 ± 29 DPM
- [3H]IP (Exp/control) ([1]; NCI-H82 (SCLC)): 2.09 ± 0.33 Exp/control
- [3H]IP (Exp/control) ([1]; NCI-H358 (NSCLC)): 1.50 ± 0.15 Exp/control
- [3H]IP (Exp/control) ([1]; NCI-H460 (NSCLC)): 1.63 ± 0.18 Exp/control
- [3H]IP (Exp/control) ([1]; NCI-H510 (SCLC)): 1.12 ± 0.05 Exp/control
- [3H]IP (Exp/control) ([1]; NCI-H520 (NSCLC)): 1.84 ± 0.36 Exp/control
- [3H]IP (Exp/control) ([1]; NCI-H720 (carcinoid)): 1.64 ± 0.22 Exp/control
- [3H]IP (Exp/control) ([1]; NCI-H727 (carcinoid)): 2.59 ± 0.22 Exp/control
- [3H]IP (DPM) ([1]; NCI-H727 (carcinoid), control 143 ± 21): 371 ± 32 DPM
- [3H]IP (Exp/control) ([1]; NCI-H1299 BRS-3 transfected): 7.63 ± 0.77 Exp/control
- [3H]IP (Exp/control) ([1]; NCI-N417 (SCLC)): 4.31 ± 1.03 Exp/control
- [3H]IP (DPM) ([1]; NCI-N417 (SCLC), control 660 ± 87): 2850 ± 571 DPM
- maximal stimulated [3H]IP value ([1]; NCI-H69 cells, 100 nM MK-5046, control 177 ± 27 dpm): 834 ± 66 dpm
- maximal stimulated [3H]IP value ([1]; NCI-H720 cells, 10 nM MK-5046, control 268 ± 23 dpm): 375 ± 31 dpm
- maximal stimulated [3H]IP value ([1]; hBRS-3-NCI-H1299 cells, 100 nM MK-5046, control 1169 ± 88 dpm): 10,144 ± 1310 dpm
- Ca2+ release (% over basal) ([2]; Balb-3T3 BRS-3 transfected): 7.43 ± 1.22 % over basal
- Ca2+ release (% over basal) ([2]; NCI-H69 (SCLC)): 3.09 ± 0.67 % over basal
- Ca2+ release (% over basal) ([2]; NCI-H82 (SCLC)): 9.00 ± 1.11 % over basal
- Ca2+ release (% over basal) ([2]; NCI-H358 (NSCLC)): 1.65 ± 0.43 % over basal
- Ca2+ release (% over basal) ([2]; NCI-H460 (NSCLC)): 5.77 ± 1.41 % over basal
- Ca2+ release (% over basal) ([2]; NCI-H510 (SCLC)): 2.94 ± 0.52 % over basal
- Ca2+ release (% over basal) ([2]; NCI-H520 (NSCLC)): 2.60 ± 0.40 % over basal
- Ca2+ release (% over basal) ([2]; NCI-H720 (carcinoid)): 2.40 ± 0.28 % over basal
- Ca2+ release (% over basal) ([2]; NCI-H727 (carcinoid)): 6.26 ± 1.43 % over basal
- Ca2+ release (% over basal) ([2]; NCI-H1299 BRS-3 transfected): 8.04 ± 0.55 % over basal
- Ca2+ release (% over basal) ([2]; NCI-N417 (SCLC)): 4.40 ± 0.62 % over basal
- dose-response curve shape, p42/44 phosphorylation ([3]; BRS-3/H1299-transfected-cells): monophasic
- EC50 ([3]; BRS-3/H1299-cells): 1.9 ± 0.16 nM
- EC50 ([3]; NCI-H69): 0.12 ± 0.01 nM
- EC50 ([3]; NCI-H82): 1.08 ± 0.16 nM
- EC50 ([3]; NCI-H720): 1.14 ± 0.57 nM
- EC50 ([3]; NCI-H727): 0.02 ± 0.01 nM
- EC50 ([3]; NCI-N417): 0.02 ± 0.01 nM
- P-p42/44 (Exp/control) ([3]; Balb-3T3 BRS-3 transfected): 1.85 ± 0.21 Exp/control
- P-p42/44 (Exp/control) ([3]; NCI-H69 (SCLC)): 1.95 ± 0.18 Exp/control
- P-p42/44 (Exp/control) ([3]; NCI-H82 (SCLC)): 1.50 ± 0.10 Exp/control
- P-p42/44 (Exp/control) ([3]; NCI-H358 (NSCLC)): 2.33 ± 0.34 Exp/control
- P-p42/44 (Exp/control) ([3]; NCI-H460 (NSCLC)): 1.07 ± 0.16 Exp/control
- P-p42/44 (Exp/control) ([3]; NCI-H510 (SCLC)): 2.22 ± 0.13 Exp/control
- P-p42/44 (Exp/control) ([3]; NCI-H520 (NSCLC)): 1.88 ± 0.24 Exp/control
- P-p42/44 (Exp/control) ([3]; NCI-H720 (carcinoid)): 2.53 ± 0.39 Exp/control
- P-p42/44 (Exp/control) ([3]; NCI-H727 (carcinoid)): 2.41 ± 0.34 Exp/control
- P-p42/44 (Exp/control) ([3]; NCI-H1299 BRS-3 transfected): 1.54 ± 0.28 Exp/control
- P-p42/44 (Exp/control) ([3]; NCI-N417 (SCLC)): 1.64 ± 0.25 Exp/control
- decrease in p42/44-phosphorylation at supramaximal concentrations ([3]; NCI-H82-cells, p < 0.002): 50 ± 7%
- decrease in p42/44-phosphorylation at supramaximal concentrations ([3]; NCI-H727-cells, p < 0.0001): 49 ± 9%
- decrease in p42/44-phosphorylation at supramaximal concentrations ([3]; NCI-N417, p < 0.0001): 29 ± 6%
- dose-response curve shape, p42/44 phosphorylation ([3]; all the cells (NCI-H727, NCI-H720, NCI-H69, NCI-H82, NCI-N417) except BRS-3/H1299): biphasic
- Emax at 1 µM ([3]; read-out: maximal stimulation of p42/44-MAPK phosphorylation): 96 ± 7%
- EC50 ([4]; NCI-H69, read-out: EC50, [3H]-Thymidine-uptake): 0.27 ± 0.06 nM
- EC50 ([4]; NCI-H358, read-out: EC50, [3H]-Thymidine-uptake): 0.52 ± 0.07 nM
- EC50 ([4]; NCI-H727, read-out: EC50, [3H]-Thymidine-uptake): 0.31 ± 0.06 nM
- [3H]-Thymidine Incorporation (Exp/control) ([4]; MK-5046 10 nM, NCI-H69): 1.36 ± 0.09 Exp/control
- [3H]-Thymidine Incorporation (Exp/control) ([4]; MK-5046 10 nM, NCI-H82): 1.08 ± 0.08 Exp/control
- [3H]-Thymidine Incorporation (Exp/control) ([4]; MK-5046 10 nM, NCI-H358): 1.20 ± 0.05 Exp/control
- [3H]-Thymidine Incorporation (Exp/control) ([4]; MK-5046 10 nM, NCI-H460): 1.29 ± 0.07 Exp/control
- [3H]-Thymidine Incorporation (Exp/control) ([4]; MK-5046 10 nM, NCI-H510): 1.39 ± 0.04 Exp/control
- [3H]-Thymidine Incorporation (Exp/control) ([4]; MK-5046 10 nM, NCI-H520): 1.27 ± 0.10 Exp/control
- [3H]-Thymidine Incorporation (Exp/control) ([4]; MK-5046 10 nM, NCI-H720): 1.15 ± 0.04 Exp/control
- [3H]-Thymidine Incorporation (Exp/control) ([4]; MK-5046 10 nM, NCI-H727): 1.41 ± 0.18 Exp/control
- [3H]-Thymidine Incorporation (Exp/control) ([4]; MK-5046 10 nM, NCI-H1299 BRS-3-transfected): 1.41 ± 0.06 Exp/control
- [3H]-Thymidine Incorporation (Exp/control) ([4]; MK-5046 10 nM, NCI-N417): 1.29 ± 0.08 Exp/control
- [3H]-Thymidine Incorporation (Exp/control) ([4]; MK-5046 1 μM, NCI-H69): 0.76 ± 0.07 Exp/control
- [3H]-Thymidine Incorporation (Exp/control) ([4]; MK-5046 1 μM, NCI-H82): 1.17 ± 0.05 Exp/control
- [3H]-Thymidine Incorporation (Exp/control) ([4]; MK-5046 1 μM, NCI-H358): 1.15 ± 0.06 Exp/control
- [3H]-Thymidine Incorporation (Exp/control) ([4]; MK-5046 1 μM, NCI-H460): 1.07 ± 0.07 Exp/control
- [3H]-Thymidine Incorporation (Exp/control) ([4]; MK-5046 1 μM, NCI-H510): 1.36 ± 0.10 Exp/control
- [3H]-Thymidine Incorporation (Exp/control) ([4]; MK-5046 1 μM, NCI-H520): 1.07 ± 0.14 Exp/control
- [3H]-Thymidine Incorporation (Exp/control) ([4]; MK-5046 1 μM, NCI-H720): 1.17 ± 0.03 Exp/control
- [3H]-Thymidine Incorporation (Exp/control) ([4]; MK-5046 1 μM, NCI-H727): 1.47 ± 0.16 Exp/control
- [3H]-Thymidine Incorporation (Exp/control) ([4]; MK-5046 1 μM, NCI-H1299 BRS-3-transfected): 1.27 ± 0.11 Exp/control
- [3H]-Thymidine Incorporation (Exp/control) ([4]; MK-5046 1 μM, NCI-N417): 1.26 ± 0.07 Exp/control
- decrease in [3H]-Thymidine-uptake at supramaximal concentrations ([4]; NCI-H69-cells): 87%
- decrease in [3H]-Thymidine-uptake at supramaximal concentrations ([4]; NCI-H358-cells): 23%
- [3H]-Thymidine Incorporation (Exp/control) ([5]; MK-5046 10 nM): 1.00 ± 0.04 Exp/control
- [3H]-Thymidine Incorporation (Exp/control) ([5]; MK-5046 1 μM): 1.24 ± 0.07 Exp/control
